{
  "source": "patent US20020077317A1",
  "about": "“Method of potentating the action of 2-methoxyoestradiol, statins and C-peptide of proinsulin” (priority 2000, published 2002)",
  "key": {"[1]": {"test_system": "tumor cells and normal cells", "experiment": "PUFAs on tumor cells and normal cells in vitro", "type": "cell-based", "details": "for killing of tumor cells versus normal cells: in vitro", "excerpt": "(§1) Tumor cells are not only deficient in PUFAs but also have low rate(s) of lipid peroxidation and low amounts of superoxide dismutase (SOD), and contain relatively large amounts of antioxidants such as vitamin E. It is also believed that low rates of lipid peroxidation and consequent low amounts of lipid peroxides in the cells can contribute to an increase in the mitotic process which ultimately leads to an increase in cell proliferation. Thus, a deficiency of PUFAs, high amounts of antioxidants and the presence of low amounts of lipid peroxides in the tumor cells can contribute to the growth of tumor cells.\n(§2) Essential fatty acids are precursors of eicosanoids and are important structural components of cell membranes. They also provide the substrates for the generation of lipid peroxidation products which have an inhibitory action on cell proliferation. Tumor cells are known to have low delta-6-desaturase activity, an enzyme necessary for the desaturation of dietary linoleic acid (LA, 18:2, n-6) and alpha-linolenic acid (ALA, 18:3, n-3) to their respective products. […] This selective tumoricidal action of fatty acids seems to be mediated by free radicals and lipid peroxides."}, "KB-Ch^R-8-5": {"test_system": "KB-Ch^R-8-5", "experiment": "vincristine resistant KB-ChR-8-5 tumor cells", "type": "cell-based"}, "skin papilloma": {"test_system": "skin papilloma", "experiment": "skin papilloma in mice", "type": "in vivo", "details": "pure fatty acid or fatty acid rich oils"}, "[2]": {"test_system": "TNF resistant L-929 tumor cells", "experiment": "TNF resistant L-929 tumor cells in vitro", "type": "cell-based", "details": "for killing of TNF resistant L-929 tumor cells: in vitro; for sensitisation of TNF-resistant L-929 cells to TNF: prior treatment with fatty acid"}, "[3]": {"test_system": "normal and tumor cells grown together", "experiment": "mixed culture of normal and tumor cells", "type": "cell-based", "excerpt": "as §1"}, "tumor cells": {"test_system": "tumor cells", "experiment": "PUFA potentiation of anti-cancer drugs in tumor cells", "type": "cell-based", "details": "for cytotoxic action of doxorubicin, vincristine and cis-platinum: fatty acid added to anti-cancer drug"}, "hepatoma": {"test_system": "hepatoma", "experiment": "hepatoma in rats", "type": "in vivo", "details": "pure fatty acid or fatty acid rich oils"}, "ascitic tumor cells": {"test_system": "ascitic tumor cells", "experiment": "ascitic tumor cells in the peritoneum", "type": "in vivo", "details": "experimental animals; pure fatty acid or fatty acid rich oils"}, "[4]": {"test_system": "free radical generation and lipid peroxidation", "details": "cited from earlier work"}, "solid tumors": {"test_system": "solid tumors", "details": "cited from earlier work"}, "[5]": {"test_system": "breast cancer cells, MCF-7", "details": "cited from earlier work"}, "endothelial cells": {"test_system": "endothelial cells", "details": "read-out: half-maximal inhibitory concentration (IC50); cited from earlier work"}, "[6]": {"test_system": "Chinese Hamster V79 cells", "details": "in culture; cited from earlier work"}, "[7]": {"test_system": "SOD (superoxide dismutase)", "details": "cited from earlier work"}, "p53 protein": {"test_system": "p53 protein", "details": "cited from earlier work"}, "[8]": {"test_system": "normal human skin fibroblasts", "details": "at 100 micro M concentration; cited from earlier work"}, "endothelial cell": {"test_system": "endothelial cell", "details": "cited from earlier work"}, "[9]": {"test_system": "primary and metastatic tumors", "details": "experimental animals; cited from earlier work"}, "bone marrow cells": {"test_system": "bone marrow cells", "experiment": "side effects of anti-cancer agents on mouse bone marrow cells", "type": "in vivo", "details": "mice", "excerpt": "[…], it is desirable that PUFAs should be delivered to the patients in such a manner that they are easily available to the tumor cells and are delivered selectively to the tumor cells."}, "delta-6-desaturase": {"target": "delta-6-desaturase (Homo sapiens, UniProt O95864)", "sequence (O95864 whole entry, species assumed)": "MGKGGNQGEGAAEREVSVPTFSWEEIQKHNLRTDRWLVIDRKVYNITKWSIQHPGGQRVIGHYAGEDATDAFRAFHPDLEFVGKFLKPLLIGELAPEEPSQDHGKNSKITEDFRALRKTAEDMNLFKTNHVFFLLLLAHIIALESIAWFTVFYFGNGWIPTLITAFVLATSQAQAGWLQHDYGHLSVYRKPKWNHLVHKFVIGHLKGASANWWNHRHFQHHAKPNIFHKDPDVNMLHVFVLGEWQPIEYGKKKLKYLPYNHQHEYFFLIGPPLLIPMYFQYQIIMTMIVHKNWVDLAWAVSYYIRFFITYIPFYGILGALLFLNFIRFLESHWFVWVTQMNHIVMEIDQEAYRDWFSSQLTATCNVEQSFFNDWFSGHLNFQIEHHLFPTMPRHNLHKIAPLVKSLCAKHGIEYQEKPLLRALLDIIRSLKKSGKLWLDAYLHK", "experiment": "delta-6-desaturase activity", "type": "biochemical", "excerpt": "as §2"}, "delta-5-desaturase": {"target": "delta-5-desaturase (Homo sapiens, UniProt O60427)", "sequence (O60427 whole entry, species assumed)": "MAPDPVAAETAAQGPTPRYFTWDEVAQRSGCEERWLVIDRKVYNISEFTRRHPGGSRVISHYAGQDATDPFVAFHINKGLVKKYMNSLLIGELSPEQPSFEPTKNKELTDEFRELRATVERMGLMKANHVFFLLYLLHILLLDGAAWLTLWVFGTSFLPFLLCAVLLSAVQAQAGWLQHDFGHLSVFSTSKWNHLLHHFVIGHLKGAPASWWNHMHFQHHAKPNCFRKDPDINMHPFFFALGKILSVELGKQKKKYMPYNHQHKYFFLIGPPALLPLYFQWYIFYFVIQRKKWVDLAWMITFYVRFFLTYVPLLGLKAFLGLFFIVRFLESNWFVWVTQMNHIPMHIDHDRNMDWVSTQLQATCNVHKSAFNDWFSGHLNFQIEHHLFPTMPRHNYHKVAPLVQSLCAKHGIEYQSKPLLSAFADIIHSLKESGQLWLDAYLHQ", "experiment": "delta-5-desaturase activity", "type": "biochemical", "excerpt": "as §2"}, "[10]": {"test_system": "bovine capillary endothelial cells", "details": "in vitro; cited from earlier work"}, "[11]": {"test_system": "proliferating endothelial cells", "details": "cited from earlier work"}, "[12]": {"test_system": "subcutaneous hemangioendothelioma", "details": "mice with hemangioendothelioma and disseminated intravascular coagulopathy; cited from earlier work"}, "[13]": {"details": "proliferating endothelial cells"}},
  "note": "pIC50: −log10 of the molar value.",
  "data": [
    {"molecule": "CCCCC/C=C\\C/C=C\\CCCCCCCC(=O)O", "note": "[LA, linoleic acid]", "values": [
      {"measurement": "killing of tumor cells versus normal cells", "setting": "[1]", "value": "only tumor cells are killed"}
    ]},
    {"molecule": "CCCCC/C=C\\C/C=C\\C/C=C\\C/C=C\\CCCC(=O)O", "note": "[AA, arachidonic acid]", "values": [
      {"measurement": "tumor cell proliferation", "setting": "[1]", "value": "decrease tumor cell proliferation"},
      {"measurement": "killing of tumor cells versus normal cells", "setting": "[1]", "value": "only tumor cells are killed"},
      {"measurement": "sensitisation of vincristine resistant cells to vincristine", "setting": "KB-Ch^R-8-5", "value": "made sensitive to the cytotoxic action of vincristine"},
      {"measurement": "growth of skin papilloma", "setting": "skin papilloma", "value": "inhibit the growth"},
      {"measurement": "killing of TNF resistant L-929 tumor cells", "setting": "[2]", "value": "able to kill"},
      {"measurement": "sensitisation of TNF-resistant L-929 cells to TNF", "setting": "[2]", "value": "rendered TNF sensitive"},
      {"measurement": "selective tumoricidal action in mixed culture", "setting": "[3]", "value": "effective to some extent"},
      {"measurement": "cellular uptake of anti-cancer drugs by tumor cells", "setting": "tumor cells", "value": "enhance the cellular uptake"},
      {"measurement": "cytotoxic action of doxorubicin, vincristine and cis-platinum", "setting": "tumor cells", "value": "can be augmented"},
      {"measurement": "formation and growth of hepatoma", "setting": "hepatoma", "value": "inhibit the growth"},
      {"measurement": "growth of ascitic tumor cells in the peritoneum", "setting": "ascitic tumor cells", "value": "inhibit the growth"}
    ]},
    {"molecule": "vitamin E", "values": [
      {"measurement": "free radical generation and lipid peroxidation generated by GLA, EPA and DHA", "setting": "[4]", "value": "completely inhibit free radical generation and lipid peroxidation"}
    ]},
    {"molecule": "superoxide dismutase", "values": [
      {"measurement": "free radical generation and lipid peroxidation generated by GLA, EPA and DHA", "setting": "[4]", "value": "completely inhibit free radical generation and lipid peroxidation"}
    ]},
    {"molecule": "COc1cc2c(cc1O)CC[C@@H]1[C@@H]2CC[C@]2(C)[C@@H](O)CC[C@@H]12", "note": "[2-ME, 2-methoxyoestradiol]", "values": [
      {"measurement": "general toxicity", "setting": "solid tumors; in vivo", "value": "not associated with general toxicity"},
      {"measurement": "capillary formation in and growth of solid tumors", "setting": "solid tumors; oral administration, mice", "value": "inhibit capillary formation in solid tumors and reduce their growth"},
      {"measurement": "action on MCF-7 cells", "setting": "[5]", "value": "cytotoxic action"},
      {"measurement": "pIC50", "setting": "endothelial cells", "value": 6.82},
      {"measurement": "growth of Chinese Hamster V79 cells", "setting": "[6]", "value": "suppres the growth"},
      {"measurement": "binding to SOD", "setting": "[7]", "value": "able to bind to SOD"},
      {"measurement": "accumulation of p53 protein", "setting": "p53 protein", "value": "induce the accumulation of p53 protein"},
      {"measurement": "effect on normal human skin fibroblasts", "setting": "[8]", "value": "no effect"}
    ]},
    {"molecule": "CC\\C=C/C=C/C=C/C=C\\CCCCCCCC(=O)O", "note": "[cis-parinaric acid]", "values": [
      {"measurement": "killing of tumor cells versus normal cells", "setting": "[1]", "value": "only tumor cells are killed"}
    ]},
    {"molecule": "CC/C=C\\C/C=C\\C/C=C\\C/C=C\\C/C=C\\C/C=C\\CCC(=O)O", "note": "[DHA, docosahexaenoic acid]", "values": [
      {"measurement": "cytotoxic action of doxorubicin, vincristine and cis-platinum", "setting": "tumor cells", "value": "can be augmented"}
    ]},
    {"molecule": "Endostatin®", "values": [
      {"measurement": "endothelial cell proliferation and angiogenesis", "setting": "endothelial cell", "value": "specifically inhibit endothelial cell proliferation and angiogenesis"},
      {"measurement": "primary and metastatic tumors", "setting": "[9]", "value": "dramatic reduction of primary and metastatic tumors"}
    ]},
    {"molecule": "CCCCC/C=C\\C/C=C\\C/C=C\\CCCCCCC(=O)O", "note": "[DGLA, dihomo-GLA]", "values": [
      {"measurement": "tumor cell proliferation", "setting": "[1]", "value": "decrease tumor cell proliferation"},
      {"measurement": "killing of tumor cells versus normal cells", "setting": "[1]", "value": "only tumor cells are killed"},
      {"measurement": "sensitisation of vincristine resistant cells to vincristine", "setting": "KB-Ch^R-8-5", "value": "made sensitive to the cytotoxic action of vincristine"},
      {"measurement": "growth of skin papilloma", "setting": "skin papilloma", "value": "inhibit the growth"},
      {"measurement": "killing of TNF resistant L-929 tumor cells", "setting": "[2]", "value": "able to kill"},
      {"measurement": "sensitisation of TNF-resistant L-929 cells to TNF", "setting": "[2]", "value": "rendered TNF sensitive"},
      {"measurement": "cellular uptake of anti-cancer drugs by tumor cells", "setting": "tumor cells", "value": "enhance the cellular uptake"},
      {"measurement": "cytotoxic action of doxorubicin, vincristine and cis-platinum", "setting": "tumor cells", "value": "can be augmented"},
      {"measurement": "formation and growth of hepatoma", "setting": "hepatoma", "value": "inhibit the growth"},
      {"measurement": "growth of ascitic tumor cells in the peritoneum", "setting": "ascitic tumor cells", "value": "inhibit the growth"},
      {"measurement": "side effects of gamma-radiation and cis-platinum to bone marrow cells", "setting": "bone marrow cells", "value": "prevent or ameliorate the side effects"}
    ]},
    {"molecule": "CC/C=C\\C/C=C\\C/C=C\\CCCCCCCC(=O)O", "note": "[ALA, alpha-linolenic acid]", "values": [
      {"measurement": "killing of tumor cells versus normal cells", "setting": "[1]", "value": "only tumor cells are killed"}
    ]},
    {"molecule": "CCN(CC)N=O", "note": "[DEN, diethylnitrosamine]", "values": [
      {"measurement": "activity of delta-6-desaturase", "setting": "delta-6-desaturase", "value": "can suppress the activity"},
      {"measurement": "activity of delta-5-desaturase", "setting": "delta-5-desaturase", "value": "can suppress the activity"}
    ]},
    {"molecule": "angiostatin®", "values": [
      {"measurement": "proliferation/growth of bovine capillary endothelial cells", "setting": "[10]", "value": "inhibit the growth of bovine capillary endothelial cells"},
      {"measurement": "cell cycle progression", "setting": "[11]", "value": "did not alter cell cycle progression significantly"},
      {"measurement": "adhesion activity", "setting": "[11]; [13]", "value": "enhanced the adhesion activity"},
      {"measurement": "change in expression of E-selectin", "setting": "[11]; [13]", "value": "4 to 5", "unit": "fold"},
      {"measurement": "size of the tumor", "setting": "[12]", "value": "significant reduction in the size of the tumor"},
      {"measurement": "survival", "setting": "[12]", "value": "increased survival"}
    ]},
    {"molecule": "CCCCC/C=C\\C/C=C\\C/C=C\\CCCCC(=O)O", "note": "[GLA, gamma-linolenic acid]", "values": [
      {"measurement": "tumor cell proliferation", "setting": "[1]", "value": "decrease tumor cell proliferation"},
      {"measurement": "killing of tumor cells versus normal cells", "setting": "[1]", "value": "only tumor cells are killed"},
      {"measurement": "killing of TNF resistant L-929 tumor cells", "setting": "[2]", "value": "able to kill"},
      {"measurement": "cellular uptake of anti-cancer drugs by tumor cells", "setting": "tumor cells", "value": "enhance the cellular uptake"},
      {"measurement": "cytotoxic action of doxorubicin, vincristine and cis-platinum", "setting": "tumor cells", "value": "can be augmented"},
      {"measurement": "formation and growth of hepatoma", "setting": "hepatoma", "value": "inhibit the growth"},
      {"measurement": "growth of ascitic tumor cells in the peritoneum", "setting": "ascitic tumor cells", "value": "inhibit the growth"},
      {"measurement": "side effects of gamma-radiation and cis-platinum to bone marrow cells", "setting": "bone marrow cells", "value": "prevent or ameliorate the side effects"}
    ]},
    {"molecule": "CC(=O)Nc1ccc2c(c1)Cc1ccccc1-2", "note": "[2-AAF, 2-acetylaminofluorine]", "values": [
      {"measurement": "activity of delta-6-desaturase", "setting": "delta-6-desaturase", "value": "can suppress the activity"},
      {"measurement": "activity of delta-5-desaturase", "setting": "delta-5-desaturase", "value": "can suppress the activity"}
    ]},
    {"molecule": "CC/C=C\\C/C=C\\C/C=C\\C/C=C\\C/C=C\\CCCC(=O)O", "note": "[EPA, eicosapentaenoic acid]", "values": [
      {"measurement": "cytotoxic action of doxorubicin, vincristine and cis-platinum", "setting": "tumor cells", "value": "can be augmented"},
      {"measurement": "side effects of gamma-radiation and cis-platinum to bone marrow cells", "setting": "bone marrow cells", "value": "prevent or ameliorate the side effects"}
    ]}
  ]
}
